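1) Cells in 96-well plates. 2) Compound, 48 h, 5 concentrations. 3) Linear interpolation between surrounding doses. 4) Unreached endpoint = highest concentration. GI50 = concentration required for 50% inhibition of growth. The concentration for full growth arrest is given as TGI.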
Tests used:
Test in all cases: growth of human tumour cells (NCI), 48 h
COLO 205 colon = test system: COLO 205 colon
HOP-92 NSCLC = test system: HOP-92 NSCLC
KM12 colon = test system: KM12 colon
MALME-3M melanoma = test system: MALME-3M melanoma
OVCAR-3 ovarian = test system: OVCAR-3 ovarian
SF-295 CNS = test system: SF-295 CNS
SK-MEL-28 melanoma = test system: SK-MEL-28 melanoma
SW-620 colon = test system: SW-620 colon
MDA-MB-435 = test system: MDA-MB-435
NCI-H226 lung = test system: NCI-H226 lung
HOP-62 NSCLC = test system: HOP-62 NSCLC

Row | SMILES | TGI (COLO 205 colon) | TGI (HOP-92 NSCLC) | TGI (KM12 colon) | TGI (MALME-3M melanoma) | TGI (OVCAR-3 ovarian) | TGI (SF-295 CNS) | TGI (SK-MEL-28 melanoma) | TGI (SW-620 colon) | TGI (MDA-MB-435) | TGI (NCI-H226 lung) | TGI (HOP-62 NSCLC) | GI50 (COLO 205 colon) | GI50 (HOP-62 NSCLC) | GI50 (KM12 colon) | GI50 (MALME-3M melanoma) | GI50 (MDA-MB-435) | GI50 (NCI-H226 lung) | GI50 (SF-295 CNS) | GI50 (SW-620 colon)
1 | COc1cc(Nc2nc3cc(C)ccc3nc2-c2ccccc2)cc(OC)c1OC | 43.7 µM | > 100 µM | > 100 µM | 56.8 µM | 41.8 µM | 56 µM | 55.1 µM | > 100 µM | – | – | – | – | – | – | – | – | – | – | –
2 | Cc1[nH]c(=O)c2oc3cc4ccccc4cc3c2c1C(=O)O | – | > 10 µM | > 10 µM | > 10 µM | > 10 µM | > 10 µM | – | > 10 µM | > 10 µM | > 10 µM | – | – | – | – | – | – | – | – | –
3 | COC(=O)/C=C1\C(CO[Si](C)(C)C(C)(C)C)OC(n2ccc(=O)[nH]c2=O)C1O (stereo not drawn) | 10.3 µM | 44 µM | > 39.4 µM | – | 54.5 µM | > 100 µM | 21.4 µM | > 100 µM | > 43 µM | 19.5 µM | > 31.1 µM | – | – | – | – | – | – | – | –
4 | Cc1nn(C(=O)Cc2ccccc2)c2c1C(c1ccc(/C=C/c3ccccc3)cc1)SC(N)=N2 (stereo not drawn) | > 100 µM | – | > 100 µM | > 100 µM | – | > 100 µM | > 100 µM | > 100 µM | > 100 µM | > 100 µM | > 100 µM | – | – | – | – | – | – | – | –
5 | Cc1csc(=Nc2ccccc2)n1CCC(O)(P(=O)(O)O)P(=O)(O)O | > 100 µM | – | > 100 µM | > 100 µM | > 100 µM | > 100 µM | – | – | – | > 100 µM | > 100 µM | – | – | – | – | – | – | – | –
6 | Cc1ccc2c(c1C)CC1(Cc3ccc(C)c(C)c3C1=O)C2=O (stereo not drawn) | > 100 µM | 87 µM | > 100 µM | > 100 µM | > 100 µM | > 100 µM | > 100 µM | > 100 µM | > 100 µM | > 100 µM | – | – | – | – | – | – | – | – | –
7 | N#CC1=C(S)N(C2OC(CO)C(O)C(O)C2O)C(c2ccccc2)=CC1c1ccco1 (stereo not drawn) | – | > 100 µM | > 100 µM | > 100 µM | > 100 µM | > 100 µM | > 100 µM | – | > 100 µM | > 100 µM | > 100 µM | – | – | – | – | – | – | – | –
8 | Cc1cc2nnn(C3CCCCO3)c2cc1C (stereo not drawn) | > 100 µM | – | > 100 µM | > 100 µM | > 100 µM | > 100 µM | – | – | > 100 µM | > 100 µM | > 100 µM | – | – | – | – | – | – | – | –
9 | C/C=C1/C=CC2c3[nH]c4ccccc4c3CCN2C1 (stereo not drawn) | > 400 µM | > 400 µM | > 400 µM | > 400 µM | > 400 µM | > 400 µM | > 400 µM | > 400 µM | – | > 400 µM | > 400 µM | – | – | – | – | – | – | – | –
10 | CC1C(OS(=O)(=O)c2ccc3[nH]c(=S)sc3c2)CC2C3(C)CCC2(C(C)C(=O)O)C(O)C13 (stereo not drawn) | 38 µM | > 100 µM | 52.4 µM | 83.8 µM | 42.5 µM | 95.1 µM | > 100 µM | – | 47.8 µM | 60.4 µM | 66.5 µM | – | – | – | – | – | – | – | –
11 | CC(C)(C)n1c(=O)n2c(-c3ccccc3)c(-c3ccccc3)n2c1=O | > 100 µM | > 100 µM | > 100 µM | > 100 µM | > 100 µM | > 100 µM | > 100 µM | > 100 µM | > 100 µM | > 100 µM | – | – | – | – | – | – | – | – | –
12 | O=C(O)CCC(NC(=O)c1ccc(Nc2nc3ccc(C(F)(F)F)cc3nc2C(=O)O)cc1)C(=O)O (stereo not drawn) | > 100 µM | > 100 µM | > 100 µM | – | > 100 µM | > 100 µM | – | > 100 µM | > 100 µM | > 100 µM | > 100 µM | – | – | – | – | – | – | – | –
13 | CCOC(OCC)(OCC)C(Br)CC (stereo not drawn) | > 100 µM | > 100 µM | > 100 µM | > 100 µM | > 100 µM | > 100 µM | > 100 µM | – | – | > 100 µM | > 100 µM | – | – | – | – | – | – | – | –
14 | O=c1c2sc3ccccc3sc=2c(=O)c2c(Cl)c(Cl)c(Cl)c(Cl)c12 | > 100 µM | – | > 100 µM | > 100 µM | > 100 µM | > 100 µM | > 100 µM | > 100 µM | > 100 µM | > 100 µM | > 100 µM | – | – | – | – | – | – | – | –
15 | CCOC(=O)c1c(Cl)c2c(n1Cc1ccccc1)-c1oncc1CCC2 | > 100 µM | – | > 100 µM | > 100 µM | – | > 100 µM | – | > 100 µM | 4.92 µM | > 100 µM | > 100 µM | 3.53 µM | 4.35 µM | 3.71 µM | 3.68 µM | 1400 nM | > 100 µM | > 100 µM | 3.81 µM
16 | CCN(CC)c1ccc(Cl)c2c1C(O)(C(C)C)C2(C)C (stereo not drawn) | 28.9 µM | – | 28.4 µM | 27.4 µM | 25.2 µM | 33 µM | 37.1 µM | 32.6 µM | – | 33.6 µM | 39 µM | – | – | – | – | – | – | – | –
17 | CCc1nc(N)nc(N)c1-c1ccc(N2CCOCC2)c(N=[N+]=[N-])c1 | > 100 µM | > 100 µM | > 100 µM | – | > 100 µM | > 100 µM | > 100 µM | > 100 µM | > 100 µM | > 100 µM | > 100 µM | – | – | – | – | – | – | – | –
18 | COc1cc(Nc2cc(Cl)cc(Cl)c2)nc(N)n1 | 44.2 µM | 32.1 µM | 37 µM | 40.4 µM | 41.1 µM | 38.3 µM | – | 59.8 µM | 75.8 µM | 42.5 µM | 36.6 µM | – | – | – | – | – | – | – | –
19 | C=C1CC[C@@H]2[C@](C)(COC(=O)CCC(=O)OC)CCC[C@@]2(C)[C@@H]1CCC1=CC(=O)OC1 | > 100 µM | – | > 100 µM | > 100 µM | > 100 µM | > 100 µM | > 100 µM | > 100 µM | > 100 µM | > 100 µM | > 100 µM | – | – | – | – | – | – | – | –
20 | O=C(Nc1ccc(Cl)cc1Cl)C1C(=O)OC2(CCCCC2)OC1=O | 26.7 µM | 28.1 µM | 28.4 µM | – | 16.1 µM | 19.4 µM | 23.5 µM | 25.3 µM | 56 µM | 29.3 µM | 17.3 µM | – | – | – | – | – | – | – | –
21 | CC(=O)Nc1nc2c(=O)c3ccccc3sc2s1 | > 100 µM | – | > 100 µM | – | > 100 µM | > 100 µM | – | – | – | > 100 µM | > 100 µM | – | – | – | – | – | – | – | –
22 | COC(=O)C1=C(OC)C(=P2(c3ccccc3)CC(c3ccccc3)=C2c2ccccc2)C(C(=O)OC)=C1C(=O)OC (stereo not drawn) | > 50.5 µM | – | > 100 µM | > 78.2 µM | > 100 µM | > 100 µM | > 100 µM | > 100 µM | > 100 µM | > 100 µM | > 100 µM | – | – | – | – | – | – | – | –
